Experimental data reported in ChEMBL document CHEMBL5385878, “Synthesis and structure-activity optimization of 7-azaindoles containing aza-β-amino acids targeting the influenza PB2 subunit” (Eur J Med Chem, 2023).
Activity calls are given as the source filed them. No cut-off for these calls is given here.

How the values were obtained:
Influenza A virus [1] = test: Antiviral activity against Influenza A virus A/WSN/33(H1N1) infected in A549 cells assessed as reduction in cell cytopathic effect incubated with cells for 2 hrs prior to viral infection followed by MDCK cells addition at 24 hrs pi and measured after 72 hrs by Reed-Muench method; assay type: functional, organism-based
[2] = Cytotoxicity against human A549 cells assessed as reduction in cell viability incubated for 96 hrs by CCK-8 method; assay type: toxicity, cell-based
[3] = target: T1, Polymerase basic protein 2 (Influenza A virus (strain A/Puerto Rico/8/1934 H1N1), UniProt P03428); test: Binding affinity to recombinant Influenza A virus polymerase PB2 cap-binding domain (318 to 413 residues) assessed as dissociation constant by ITC method
[4] = target: Polymerase basic protein 2 (Influenza A virus (strain A/Puerto Rico/8/1934 H1N1)) (UniProt P03428); test: Inhibition of influenza A virus polymerase PB2 expressed in HEK293T cells cotransfected with PGK-renilla-luciferase assessed as remaining activity at 10 uM pretreated with cells for 2 hrs followed by enzyme addition and measured after 24 hrs by dual-Glo luciferase assay relative to control; assay type: cell-based; settings: time 26.0 hrs
[5] = target: Polymerase basic protein 2 (Influenza A virus (strain A/Puerto Rico/8/1934 H1N1)) (UniProt P03428); test: Inhibition of influenza A virus polymerase PB2 expressed in HEK293T cells cotransfected with PGK-renilla-luciferase at 10 uM pretreated with cells for 2 hrs followed by enzyme addition and measured after 24 hrs by dual-Glo luciferase assay relative to control; assay type: cell-based; settings: time 26.0 hrs
[6] = target: T1, Polymerase basic protein 2; test: Inhibition of influenza A virus polymerase PB2 expressed in HEK293T cells cotransfected with PGK-renilla-luciferase pretreated with cells for 2 hrs followed by enzyme addition and measured after 24 hrs by dual-Glo luciferase assay; assay type: cell-based
[7] = Selectivity index, ratio of CC50 for human A549 cells to EC50 for antiviral activity against Influenza A virus A/WSN/33(H1N1) infected in A549 cells; assay type: toxicity, cell-based; settings: read-out: Ratio CC50/EC50
Influenza A virus [8] = test: Antiviral activity against Influenza A virus A/WSN/33(H1N1) infected in BALB/c mouse assessed as log reduction in lung viral titer at 12 mg/kg, po BID administered starting from 2 hrs before infection and measured on day 3 (reference value: 6.916 +/- 0.4736); assay type: functional; settings: time 3 day
Influenza A virus [9] = test: Antiviral activity against Influenza A virus A/WSN/33(H1N1) infected in BALB/c mouse assessed as log10 reduction in viral titer at 12 mg/kg, po BID administered starting from 2 hrs before infection and measured on day 3; assay type: functional; settings: time 3 day
Influenza A virus [10] = test: Antiviral activity against Influenza A virus A/WSN/33(H1N1) infected in BALB/c mouse assessed as recovery of AST level at 12 mg/kg, po BID administered starting from 2 hrs before infection and measured on day 3; assay type: functional, organism-based; settings: time 3.0 day
[11] = target: Polymerase basic protein 2 (Influenza A virus (strain A/Puerto Rico/8/1934 H1N1)) (UniProt P03428); test: Potency index, ratio of m7GTP Kd to test compound Kd for recombinant Influenza A virus polymerase PB2 cap-binding domain (318 to 413 residues)
[12] = Toxicity in BALB/c mouse assessed as poisoning symptom at 40 mg/kg, po administered once daily for 3 days; assay type: organism-based; settings: in vivo, 72 h, time 3 day
[13] = Toxicity in BALB/c mouse assessed as change in ALT level at 40 mg/kg, po administered for 3 days; assay type: organism-based; settings: in vivo, 72 h, time 3 day
[14] = Toxicity in BALB/c mouse assessed as change in Cr level at 40 mg/kg, po administered for 3 days; assay type: organism-based; settings: in vivo, 72 h, time 3 day
Influenza A virus [15] = test: Antiviral activity against wild type Influenza A/WSN/33 at 0.3 uM; assay type: functional, organism-based
[16] = Toxicity in BALB/c mouse assessed as animal death at 40 mg/kg, po administered once daily for 3 days; assay type: organism-based; settings: in vivo, 72 h, time 3 day
[17] = Toxicity in BALB/c mouse assessed as change in AST level at 40 mg/kg, po administered for 3 days; assay type: organism-based; settings: in vivo, 72 h, time 3 day
Influenza A virus [18] = test: Antiviral activity against Influenza A virus A/WSN/33(H1N1) infected in BALB/c mouse assessed as increase in survival ratio at 12.5 to 25 mg/kg, po BID administered starting from 2 days post-infection to 9 days and measured for 15 days; assay type: functional; settings: dose 12.5-25 mg/kg, time 15 day
[19] = Toxicity in BALB/c mouse assessed as change in body weight at 40 mg/kg, po administered for 3 days; assay type: organism-based; settings: in vivo, 72 h, time 3 day
[20] = Toxicity in BALB/c mouse infected with Influenza A virus A/WSN/33(H1N1) assessed as body weight loss at 12.5 to 25 mg/kg, po BID administered starting from 2 days post-infection to 9 days and measured for 15 days; assay type: organism-based; settings: in vivo, 360 h, dose 12.5-25 mg/kg, time 15 day
[21] = target: Voltage-gated inwardly rectifying potassium channel KCNH2 (Homo sapiens, UniProt Q12809); test: Inhibition of hERG by manual patch clamp method; assay type: toxicity
[22] = Toxicity in BALB/c mouse infected with Influenza A virus A/WSN/33(H1N1) assessed as body weight loss at 12 mg/kg, po BID administered starting from 2 hrs before infection and measured on day 3; assay type: organism-based; settings: in vivo, 72 h, time 3 day
Influenza A virus [23] = test: Antiviral activity against Influenza A virus A/WSN/33(H1N1) infected in BALB/c mouse assessed as recovery of ALT level at 12 mg/kg, po BID administered starting from 2 hrs before infection and measured on day 3; assay type: functional, organism-based; settings: time 3.0 day
[24] = Stability in mouse plasma assessed as half life; assay type: ADME, cell-free

Sequence of Polymerase basic protein 2 (Influenza A virus (strain A/Puerto Rico/8/1934 H1N1)) (P03428 whole entry, looked up, the tested form may be a part): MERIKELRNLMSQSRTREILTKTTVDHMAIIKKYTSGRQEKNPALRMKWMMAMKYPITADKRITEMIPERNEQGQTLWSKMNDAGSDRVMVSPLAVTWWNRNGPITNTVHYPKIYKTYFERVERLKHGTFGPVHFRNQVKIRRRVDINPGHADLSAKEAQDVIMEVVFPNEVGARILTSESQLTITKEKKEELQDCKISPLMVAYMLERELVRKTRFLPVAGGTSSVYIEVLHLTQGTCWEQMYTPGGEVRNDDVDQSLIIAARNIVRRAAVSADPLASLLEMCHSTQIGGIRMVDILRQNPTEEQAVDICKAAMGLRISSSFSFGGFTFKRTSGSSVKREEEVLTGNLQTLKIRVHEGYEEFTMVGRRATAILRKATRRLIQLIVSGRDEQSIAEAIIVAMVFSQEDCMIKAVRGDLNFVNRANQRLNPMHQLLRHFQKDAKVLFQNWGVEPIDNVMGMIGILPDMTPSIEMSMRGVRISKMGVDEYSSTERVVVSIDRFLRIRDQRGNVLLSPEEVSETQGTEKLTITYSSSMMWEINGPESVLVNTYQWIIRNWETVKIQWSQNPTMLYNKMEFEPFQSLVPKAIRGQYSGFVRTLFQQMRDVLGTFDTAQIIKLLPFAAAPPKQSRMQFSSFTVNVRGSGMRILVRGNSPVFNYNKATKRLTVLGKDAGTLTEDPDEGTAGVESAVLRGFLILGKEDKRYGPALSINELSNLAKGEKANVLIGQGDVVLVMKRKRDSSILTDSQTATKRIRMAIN
T1 sequence (P03428 whole entry, the tested form may be a part): as the sequence (P03428 whole entry, looked up, the tested form may be a part) above
Sequence of Voltage-gated inwardly rectifying potassium channel KCNH2 (Q12809 whole entry): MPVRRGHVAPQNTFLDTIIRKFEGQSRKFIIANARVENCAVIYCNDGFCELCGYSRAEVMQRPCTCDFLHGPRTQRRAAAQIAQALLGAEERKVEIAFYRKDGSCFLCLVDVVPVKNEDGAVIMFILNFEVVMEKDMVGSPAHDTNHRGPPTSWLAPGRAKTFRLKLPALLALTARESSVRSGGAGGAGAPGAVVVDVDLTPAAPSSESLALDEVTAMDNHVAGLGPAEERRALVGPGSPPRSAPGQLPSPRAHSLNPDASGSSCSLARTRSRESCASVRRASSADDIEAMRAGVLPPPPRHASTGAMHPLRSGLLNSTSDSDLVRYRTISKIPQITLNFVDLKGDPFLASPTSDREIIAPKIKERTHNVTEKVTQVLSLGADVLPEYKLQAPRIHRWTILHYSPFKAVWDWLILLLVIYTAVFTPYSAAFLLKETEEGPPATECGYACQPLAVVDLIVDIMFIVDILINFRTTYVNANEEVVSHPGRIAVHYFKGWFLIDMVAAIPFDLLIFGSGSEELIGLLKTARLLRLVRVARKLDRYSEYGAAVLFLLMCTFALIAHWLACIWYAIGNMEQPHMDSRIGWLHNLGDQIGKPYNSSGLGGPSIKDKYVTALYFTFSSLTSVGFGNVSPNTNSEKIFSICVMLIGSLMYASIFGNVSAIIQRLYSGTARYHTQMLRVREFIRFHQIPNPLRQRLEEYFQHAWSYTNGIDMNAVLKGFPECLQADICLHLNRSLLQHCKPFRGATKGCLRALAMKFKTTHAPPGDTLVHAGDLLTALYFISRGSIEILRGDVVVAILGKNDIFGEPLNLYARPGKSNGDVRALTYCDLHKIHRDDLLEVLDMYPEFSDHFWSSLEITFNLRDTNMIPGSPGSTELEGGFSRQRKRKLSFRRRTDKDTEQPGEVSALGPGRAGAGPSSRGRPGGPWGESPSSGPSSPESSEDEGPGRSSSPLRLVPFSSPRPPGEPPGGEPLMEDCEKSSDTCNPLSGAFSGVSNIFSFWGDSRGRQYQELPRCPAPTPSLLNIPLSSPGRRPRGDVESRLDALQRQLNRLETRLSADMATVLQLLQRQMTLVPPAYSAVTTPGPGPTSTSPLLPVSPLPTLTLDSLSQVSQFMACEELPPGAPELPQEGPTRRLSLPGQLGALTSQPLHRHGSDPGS

| SMILES | EC50 (Influenza A virus [1]) [nM] | Activity [4] [%] | inhibition [5] [%] | IC50 [6] [nM] | also measured |
| --- | --- | --- | --- | --- | --- |
| O=C(O)[C@@H]1CC2(CC2)CN1Nc1nc(-c2c[nH]c3ncc(F)cc23)ncc1F | 1450 | 21 | 79 | 3070 | CC50 at 96 h [2]: 87000 nM; Kd [3]: 145 nM; selectivity ratio [7]: 60 |
| O=C(O)[C@@H]1CCCCN1Nc1nc(-c2c[nH]c3ncc(F)cc23)ncc1F | 1150 | 12 | 88 | 1450 | CC50 at 96 h [2]: > 100000 nM; selectivity ratio [7]: > 87 |
| CC(C)(C)N(CC(=O)O)Nc1nc(-c2c[nH]c3ncccc23)ncc1F | 170 | 0.2 | 99.8 | 290 | CC50 at 96 h [2]: > 100000 nM; Kd [3]: 468 nM; selectivity ratio [7]: > 597 |
| O=C(O)[C@@H]1CCCN1Nc1nc(-c2c[nH]c3ncc(F)cc23)ncc1F | – | 62 | 38 | – | – |
| O=C(O)CN(Nc1nc(-c2c[nH]c3ncccc23)ncc1F)C1CCCC1 | – | 58 | 42 | – | – |
| O=C(O)[C@@H]1Cc2ccccc2CN1Nc1nc(-c2c[nH]c3ncccc23)ncc1F | – | 73 | 27 | – | – |
| CCOC(=O)C1=C[C@@H](OC(CC)CC)[C@H](NC(C)=O)[C@@H](N)C1 [OSELTAMIVIR] | 40 | – | – | – | – |
| CC(C1CC1)N(CC(=O)O)Nc1nc(-c2c[nH]c3ncc(F)cc23)ncc1F (stereo not given) | – | 41 | 59 | – | – |
| CC(C)(C)CN(CC(=O)O)Nc1nc(-c2c[nH]c3ncccc23)ncc1F | – | 65 | 35 | – | – |
| O=C(O)[C@H]1C2CCC(CC2)[C@@H]1Nc1nc(-c2c[nH]c3ncc(F)cc23)ncc1F [PIMODIVIR] | 1 | 0.1 | 99.9 | 4 | log(activity) (Influenza A virus [8]): 0.964; log(activity) (Influenza A virus [9]): 6 |
| O=C(O)CN(Nc1nc(-c2c[nH]c3ncccc23)ncc1F)C1CCCCC1 | – | 34 | 65 | – | – |
| O=C(O)[C@@H]1CCCCN1Nc1nc(-c2c[nH]c3ncccc23)ncc1F | – | 67 | 33 | – | – |
| O=C(O)[C@@H]1C[C@@H]2CCCC[C@@H]2N1Nc1nc(-c2c[nH]c3ncc(F)cc23)ncc1F | 50 | 0.1 | 99.9 | 360 | CC50 at 96 h [2]: 54100 nM; Kd [3]: 202 nM; selectivity ratio [7]: 1024 |
| O=C(O)[C@@H]1Cc2ccccc2CN1Nc1nc(-c2c[nH]c3ncc(F)cc23)ncc1F | – | 62 | 38 | – | – |
| O=C(O)CN(Cc1ccccc1)Nc1nc(-c2c[nH]c3ncc(F)cc23)ncc1F | – | > 100 | 0 | – | – |
| CC(C)(C)N(CC(=O)O)Nc1nc(-c2c[nH]c3ncc(F)cc23)ncc1F | 30 | 0.3 | 99.7 | 60 | log(activity) (Influenza A virus [8]): 4.988; Activity (Influenza A virus [10]): Active; Ratio [11]: 3850; CC50 at 96 h [2]: > 100000 nM; Activity [12]: Non-Toxic; Activity [13]: Non-Toxic; Activity [14]: Non-Toxic; Activity (Influenza A virus [15]): Active; log(activity) (Influenza A virus [9]): 2; Activity [16]: Non-Toxic; Activity [17]: Non-Toxic; Kd [3]: 46.2 nM; Activity (Influenza A virus [18]): 85.7%; Activity [19]: Non-Toxic; Activity [20]: Non-Toxic; IC50 [21]: > 10000 nM; Activity [22]: Non-Toxic; Activity (Influenza A virus [23]): Active; selectivity ratio [7]: > 2920; half-life [24]: 12 h |
| O=C(O)CN(Nc1nc(-c2c[nH]c3ncccc23)ncc1F)C1CCC1 | – | > 100 | 0 | – | – |
| O=C(O)CN(Nc1nc(-c2c[nH]c3ncc(F)cc23)ncc1F)C1CCCC1 | – | 46 | 54 | – | – |
